In patent US20120316241A1, “REMEDY FOR CARTILAGE-RELATED DISEASES” (ONO PHARMACEUTICAL CO., LTD., priority 2003, published 2012):

Tests used:
[1] = system: rat femur head articular cartilage; assay: PCNA immunohistological staining of organ-cultured articular cartilage; conditions: 1 μM, after 7 days of organ culture
Method: (§1) The cartilage deficiency model was prepared from a femoral condyle articular cartilage collected from a rat of 5 weeks of age, by cutting the cartilage layer alone such that damage is not given to the subchondral bone. The femur was soaked in the DMEM/Ham's F12 medium (contains 5 μM indometacin) and cultured for 21 days in the presence (treated group) or absence (control group) of the selective EP agonist described in Example 2 (10 μM or 1 μM). Area of the newly formed cartilage tissue was measured using Image-Pro Plus software (mfd. by Planetron) and calculated as an area ratio with the untreated lateral joint face.
(§2) The formalin-fixed sections were prepared on the 0th day, 7th day, 14th day and 21st day starting from the commencement of tissue culturing described in Example 8. Each section was decalcified with EDTA (10% w/v) for 7 days and then sliced into a section of 4 μm in thickness. The hematoxylin-eosin staining and alcian blue staining were carried out by the aforementioned method.
Regarding the PCNA immuno histological staining, the prepared slide was treated with 3% hydrogen peroxide and then subjected to a blocking treatment using a blocking solution (mfd. by Dako Cytomation). […] After washing, the reaction with a substrate, 3,3′-diaminobenzidine tetrahydrochloride (mfd. by Dako Cytomation), was detected. […]

[2] = system: human primary-cultured chondrocyte; assay: cell growth activity, BrdU incorporation assay; type: cell-based; conditions: 1 μM overnight, then 8 hours with BrdU; normal cartilage and RA articular cartilage derived cells
Method: Human primary-cultured chondrocytes were isolated from knee articular cartilages of three patients who underwent above-knee amputation due to femur osteosarcoma. In addition, other human primary-cultured chondrocytes were obtained from rheumatic arthritis patients who underwent artificial hip joint replacement. Isolation operation of these cells was also carried out by the method described in the above.
The cell growth activity was measured by a BrdU incorporation assay using BrU labeling, detection kit (mfd. by Boehringer Mannheim GmbH).
Culturing of each chondrocyte was started at a cell density of 2×10^3 cells/96 well culture dish, and after adhesion of the cells, the selective EP agonist described in Example 2 (1 μM) was added thereto to start the culturing at 37° C. overnight. Subsequently, the culturing was continued for 8 hours together with BrdU (final concentration 110 μM), and the labeled nucleus was detected by the method of the instructions attached to the kit.

chondrocyte strain = assay: gene expression profile by cDNA microarray, reconfirmed by RT-PCR; type: cell-based, mouse; conditions: 1 μM, 72 hours, medium with 5 μM indometacin
Method: Culturing of each chondrocyte was started at a cell density of 3×10^5 cells/100 mm culture dish, and 2 days and 21 days thereafter, respective total RNA samples were prepared using Trizol Reagent (mfd. by Life Technologies) in accordance with the instructions attached thereto. The RT reaction was carried out in accordance with the instructions attached to RT-PCR kit (mfd. by Life Technologies) using 1 μg of the thus prepared total RNA. The PCR reaction was carried out in 25 μl of a reaction liquid (20 μmol sense primer, 20 μmol antisense primer, 25 mM MgCl2, 0.2 mM dNTP, 1 unit γTaq polymerase (mfd. by TOYOBO., LTD.)) containing 1 μl of the RT reaction liquid. The PCR reaction (in the reaction, starting reaction was carried out at 94° C. for 5 minutes, and then the following reaction (denaturation reaction at 94° C. for 1 minute, annealing reaction at 72° C. for 1 minute and elongation reaction at 72° C. for 7 minutes) was carried out 35 times) was carried out using Gene Amp 9700 (mfd. by PE Applied Biosystem). Sequences of the primers used in the above RT-PCR are shown in the following.
Gene expression profile of chondrocytes was analyzed by a custom-made cDNA microarray system. This system was prepared by spotting 78 species of bone- and cartilage-related mouse genes and 900 species of mouse genes (InteliGene CHIP ver. 1) (mfd. by Takara Bio INC.) on a glass slide.
A chondrocyte was cultured for 72 hours in DMEM/F12 medium (contains 5 μM indometacin) in the presence or absence of each of the selective EP agonists shown in Example 2 (1 μM), and respective total RNA samples were extracted. A fluorescent cDNA probe was synthesized using 20 μg of each of the total RNA samples as the template, and using 400 U of M-MLV reverse transcriptase and Cy3 or Cy5-dUTP (Amersham Biosciences).
Each cDNA probe dissolved in a reaction buffer (6×SSC/0.2% SDS, 5×Denhardt's solution, 0.1 mg/ml denatured salmon sperm DNA) was allowed to hybridize with the spots on the glass slide at 65° C. overnight. The slide was washed with a washing liquid (2×SSC/0.2% SDS) twice at 55° C. for 5 minutes and then once at 65° C. for 5 minutes, and finally washed with 0.05×SSC solution at room temperature for 1 minute. The hybridization signal was visualized by Affymetrix 418 Array Scanner (mfd. by Affymetrix), and analyzed by ImaGene software (mfd. by BioDiscovery). Regarding the expressed genes in which changes were confirmed, reconfirmation was carried out by the RT-PCR method.

[3] = system: femoral condyle articular cartilage; assay: cartilage deficiency model, femoral condyle articular cartilage organ culture; set-up: species or system rat
Method: as §1, §2

MMA2 chondrocyte strain = assay: intracellular cAMP concentration (cAMP assay kit); type: cell-based, mouse; conditions: 12 hours with agonist
Method: Cartilage tissues of a femur and the shinbone collected from a p53 defective mouse of 4 weeks of age (Tukada, T., Oncogene, 1992, vol. 8, pp. 3313-3322) were cut into pieces, treated with 0.1% collagenase and then cultured (culture conditions; 5% CO2, 37° C., under humidification, hereinafter, this was carried out under the same conditions) using DMEM/Ham's F12 (1:1) medium (contains 10% fetal bovine serum (FBS) and antibiotics (to be referred to as DMEM/Ham's F12 medium hereinafter)). By carrying out dilution sub-culturing from the cell group under a 80 to 90% confluent state, a chondrocyte strain MMA2 recognized by an international deposition number FERM BP-10029 was isolated. […]
Culturing of each chondrocyte was started at a cell density of 1×10^4 cells/24 well culture dish, and 2 hours thereafter, each of the selective EP agonists shown in Example 2 was added thereto to continue the culturing for additional 12 hours. The intracellular cAMP concentration was measured using a cAMP assay kit (Cayman Chemical Company) and in accordance with the instructions attached to the kit, using, as a sample, lysed supernatant of the cell prepared by lysing the same with a cell lysis liquid (0.1 mM Tris/HCl buffer, pH 7.2).

SMILES: C=CCC1(C(O)C/C=C/[C@@H]2[C@@H](C/C=C\CCCC(=O)O)[C@H](Cl)C[C@H]2O)CCC1 (stereo partly drawn) [EP2 agonist, (5Z,9β,11α,13E)-17,17-propano-11,16-dihydroxy-9-chloroprostar-5,13,19-trienoic acid]
- PCNA staining affinity [1]: distinctively increased
- DNA synthesis (BrdU incorporation) [2]: DNA synthesis accelerating effect
- expression of fibronectin, integrin, cyclin D1, MAZ, AP2α and 14-3-3γ genes (chondrocyte strain): stimulated
- expression of osteopontin and MGP genes (chondrocyte strain): reduced
- ratio of the regenerated tissue (area ratio with the untreated lateral joint face) ([3]; 1 μM or 10 μM, cultured for 21 days): increased periodically and concentration-dependently
- tissue regeneration image (hematoxylin-eosin, alcian blue staining) ([3]; treated group against control group, 21 days): a regeneration image having a staining affinity of similar to that of a remaining existing cartilage (right side) was observed
- intracellular cAMP (MMA2 chondrocyte strain): increased concentration-dependently

SMILES: CCCCC[C@@H](/C=C/[C@H]1[C@H](OC)CC(=O)[C@@H]1C/C=C\CCCC(=O)O)OC [EP3 agonist, 11α,15α-dimethoxy-9-oxoprosta-5Z,13E-dienoic acid]
- PCNA staining affinity [1]: distinctively increased
- expression of fibronectin, integrin, cyclin D1, MAZ, AP2α and 14-3-3γ genes (chondrocyte strain): stimulated
- expression of osteopontin and MGP genes (chondrocyte strain): reduced
